Assay results taken from patent publication US7538185B2, “Glucagon-like peptide-1 analogs with long duration of action” (Theratechnologies Inc., priority 2004, dated 2009).

Tests used:
CD-1 mice [1] = assay: Post-prandial glucose lowering in fed CD-1 mice (Example 6, FIG. 4); type: in vivo; conditions: 400 μg/kg sc, AUC glucose over 6 hours
Method: Post-prandial AUC glucose levels for a 6 hour period are presented as a bar (mean ±SEM; n=the number of animals as presented above the bar). […] FIGS. 5, 6, 7 and 8 illustrate the effect (dose response) on post-prandial glucose levels in CD-1 mice for selected analogs. […] The blood glucose levels were measured for a period of up to 6 hours following injection (mean ±SEM; upper panel). The AUC glucose for the 6 hours period is presented as a bar (mean ±SEM; lower panel; n is the number of animals as presented on top of the lower panel bars); The animals (CD-1 mice) were maintained on standard laboratory chow under a 12:12 light:dark cycle. The animals were kept in groups of 4 mice per cage. […] The amount of food eaten was monitored. The food was then removed and the animals were injected subcutaneously with either vehicle or with a GLP-1 analogue to be tested. […] A small piece of the tip of the tail of the CD-1 mice was cut with a scalpel and a drop of blood drawn by applying light pressure with the thumb and index from the base of the tail to the tip. The drop of blood was placed on a glucometer strip (Accucheck™ compact, Roche) and a reading obtained. The scab was removed and the same procedure applied for each subsequent measurement.

[2] = system: cAMP production in RINm5F cells; assay: cAMP production in RINm5F cells (Example 5); type: cell-based; conditions: 30 minutes at 37° C., 0.1 mM IBMX, mean ± SEM
Method: RINm5F cells (ATCC # CRL-2058) were grown according to the manufacturer's specifications. Cells from approximately 90% confluent flasks were trypsinized and counted. […] Samples of the stock solutions were then aliquoted in 100 μl volumes (100 μg), to which were then added 400 μl H2O. The aliquots were then frozen and lyophilized overnight. The lyophilized samples were kept at −80° C. until used. The samples were prepared just prior to running the experiments, at a concentration of 1 mM (accounting for peptide purity and peptide content when available). From 2× stock solutions, dose-responses (10^−10 M to 10^−5 M) were measured in RPMI containing 0.1 mM IBMX. […] Cell culture media was gently aspired from the wells. The cells were then pre-incubated in 100 μl RPMI 0.1 mM IBMX at 37° C. for 10 minutes. […] At the end of the incubation period, the supernatant was collected and assayed for cAMP concentration, using a radioimmunoassay kit (DPC). Radioactive counts were transformed into cAMP amounts using a standard curve. The obtained cAMP values were corrected for the total protein in the corresponding wells as determined using the Coomassie blue assay. The cAMP values are expressed as mean ±SEM in pmol/mg protein (Table 3). Dose responses of cAMP were fitted to a sigmoidal curve model (fixed slope) using GraphPad Prism 3.02™. When performing a protein assay, the amount of protein per well is assayed for each sample. The cells were lysed with NaOH (0.1 N) and a 10 μl aliquot was used to assay the protein levels. This is done using Coomassie Blue (Pierce) and an automated plate reader Emax Pro™ (Molecular Devices).

CD-1 mice [3] = assay: Post-prandial blood glucose levels in CD-1 mice (Example 2, FIG. 1); type: in vivo; conditions: CD-1 mice fasted overnight, fed 30 minutes, peptides 400 μg/kg sc, blood glucose followed 6 hours
Method: Various peptides, including peptides of the present invention (400 μg/kg), were administered sc at 30 minutes and the blood glucose levels were determined for the next 6 hours. The data are presented as mean ±SEM values;
Overnight fasted CD-1 normal female mice (6 wk. Charles River, Montreal, Canada), were fed ad libidum for 30 minutes. […] Blood samples were drawn by tail vein excision and blood glucose levels (mmol/L) were determined for the next 6 hours using a One-Touch™ glucometer.

[4] = Nauck 1996; Todd 1998; cited from earlier work
[5] = active GLP-1; Holst 1994; cited from earlier work
[6] = molecular target: T1, GLP-1 receptor in RINm5F cells (Rattus norvegicus, UniProt P32301); assay: Displacement of 125I-GLP-1(7-36)NH2 using RINm5F cells (Example 4, FIG. 3); type: binding; conditions: RINm5F cell membranes, 400 μg protein, 22° C., 45 minutes
T1 construct: The cell membranes were diluted to obtain aliquots of 400 μg of protein per assay tube; host or cells: RINm5F cells, sonicated to a membrane preparation
T1 sequence (P32301 22-463): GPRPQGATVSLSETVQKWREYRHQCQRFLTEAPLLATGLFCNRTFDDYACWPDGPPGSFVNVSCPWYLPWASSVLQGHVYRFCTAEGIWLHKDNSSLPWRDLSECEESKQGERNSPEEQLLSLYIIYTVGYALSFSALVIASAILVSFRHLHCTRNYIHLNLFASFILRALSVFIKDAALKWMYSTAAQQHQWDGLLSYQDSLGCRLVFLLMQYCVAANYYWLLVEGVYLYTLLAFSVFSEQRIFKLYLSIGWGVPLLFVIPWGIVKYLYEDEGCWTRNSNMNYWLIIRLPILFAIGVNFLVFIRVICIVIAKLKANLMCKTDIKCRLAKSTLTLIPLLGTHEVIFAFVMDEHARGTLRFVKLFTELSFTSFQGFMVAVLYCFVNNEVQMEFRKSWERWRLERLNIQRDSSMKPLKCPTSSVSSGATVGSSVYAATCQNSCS
Method: The IC50 is calculated as the half-maximal inhibition of binding of the radiolabeled peptide; RINm5F cells (ATCC # CRL-2058) were grown according to the manufacturer's specifications. Cells from confluent flasks were maintained for four (4) days prior to the experiment. The cells were then scrapped and collected in 15 ml conical tubes followed by sonication and evaluation of protein levels. The cell membranes were diluted to obtain aliquots of 400 μg of protein per assay tube. Aliquots of RINm5F cells containing 400 μg of protein were incubated at 22° C. […] The reactions were stopped using 100 mM Tris-HCl (3×3 mL, pH 7.4) and the solutions passed through a GF/C Whatman glass microfiber filter. The latter was subsequently placed into glass tubes and counted on a Packard COBRA II Gamma counter™. Displacement isotherms were traced and analyzed using Prism™ (GraphPad, Ca).

[7] = system: streptozotocin-induced diabetic CD-1 mice; assay: Glucose lowering in fed streptozotocin-induced diabetic CD-1 mice (Example 8, FIGS. 12-16); type: in vivo; conditions: for glucose levels of streptozotocin-induced diabetic mice / duration of action: fed STZ-induced diabetic CD-1 mice, sc; for duration of action: FIGS. 12-16
Method: Blood glucose levels were measured for 12 hours post-injection (mean ±SEM; upper panel). […] In order to compare the duration of the effects of TH0396 and Exendin-4™, the glucose levels at the last hour of observation were analyzed in a dose-dependent manner. […] At 10:00 am, the animals were injected subcutaneously with the agent. Blood glucose levels were measured for 12 hours post-injection (mean ±SEM; upper panel). Average glucose levels at 11 and 12 hours are presented after subtracting the fed glucose levels of normal mice (n is the number of animals as presented on top of the lower panel bars). The animals (CD-1 mice) were maintained on standard laboratory chow under a 12:12 light:dark cycle. The animals were kept in groups of 4 mice per cage. […] The amount of food eaten was monitored for the duration of the experiment. […] A small piece of the tip of the tail of the CD-1 mice was cut with a scalpel and a drop of blood drawn by applying light pressure with the thumb and index from the base of the tail to the tip. The drop of blood was placed on a glucometer strip (Accucheck™ compact, Roche) and a reading obtained. The scab was removed and the same procedure applied for each subsequent measurement.

Sprague-Dawley rats = assay: Blood glucose levels in Sprague-Dawley rats under hyperglycemic clamping (Example 3, FIG. 2); type: in vivo; conditions: hyperglycemic clamping at 15 mM, sc
Method: Various peptides, including peptides of the present invention (100 μg/kg) were administered sc. Alterations in blood glucose levels (Delta glucose: mM) are shown on the abscissa. The data are presented as mean ±SEM values;
The animals (Sprague-Dawley rats) were maintained on standard laboratory chow under a 12:12 light:dark cycle. Following a 12 hour fasting period, the animals were anesthetized (Isoflurane 2%) and a carotid and jugular catheter installed to allow blood withdrawal and glucose injections (1.0 g/kg bolus followed by an infusion of 1.4 g/kg/hr) respectively. The animals received a subcutaneous injection of the analogs at different concentrations (300 μg/kg) 90 minutes after initiating the glucose bolus and infusion, at a time period where blood glucose concentrations have reached a steady level. Blood glucose measurements were taken prior to and 30, 60, 90, 100, 110, 120, 135, 150, 180, 210, and sometimes 240 and 300 minutes after the injection of glucose.
Glucose measurements were carried out immediately following sampling (0.3-0.4 ml; if needed) by placing a blood droplet on a glucometer strip. The glucose measurements were carried out prior to plasma separation (centrifugation) required to perform the insulin and/or any other assay.

Substance	reduction of post-prandial glucose (CD-1 mice [1])	EC50 [2] [nM]	Maximal response [2] [pmol/mg protein]	glucose levels of streptozotocin-induced diabetic mice [7]	duration of action [7]	other results
His-Gly-Glu-Gly-Thr-Phe-Thr-Ser-Asp-Val-Ser-Ser-Tyr-[(S)-Octylglycine]-Glu-Gly-Gln-Ala-Ala-Lys-Ala-Phe-Ile-Glu-Trp-Leu-Lys-Asn-NH2 [TH0397]	potently reduce post-prandial glucose	–	–	–	–	–
trans-3-hexenoyl-NH-His-Ala-Glu-Gly-Thr-Phe-Thr-Ser-Asp-Val-Ser-Ser-Tyr-[(S)-Octylglycine]-Glu-Gly-Gln-Ala-Ala-Lys-Glu-Phe-Ile-Ala-Trp-Leu-Val-Lys-Aib-Arg-NH2 [TH0426]	–	0.4 ± 0.4	5.7 ± 0.6	–	–	–
HAEGTFTSDVSSYLEGQAAKEFIAWLVKGR [GLP-1, reference compound]	–	1.8 ± 0.9	1.5 ± 0.3	–	–	duration of hypoglycemic action (CD-1 mice [3]): 2 h; duration of hypoglycemic action [4]: 2 to 3 h; metabolic clearance rate [5]: 12 to 13 min
His-Ala-Glu-Gly-Thr-Phe-Thr-Ser-Asp-Val-Ser-Ser-Tyr-[(S)-Octylglycine]-Glu-Gly-Gln-Ala-Ala-Lys-Glu-Phe-Ile-Ala-Trp-Leu-Val-Lys-Gly-Arg-NH2 [TH0322]	–	0.2 ± 0.2	1.0 ± 0.2	–	–	potency in displacing receptor bound ligand (125I-GLP-1(7-36)NH2) [6]: considerably more potent than GLP-1
trans-3-hexenoyl-NH-His-Ala-Glu-Gly-Thr-Phe-Thr-Ser-Asp-Val-Ser-Ser-Tyr-[(S)-Octylglycine]-Glu-Gly-Gln-Ala-Ala-Lys-Ala-Phe-Ile-Glu-Trp-Leu-Lys-Asn-NH2 [TH0395]	potently reduce post-prandial glucose	6.1 ± 0.9	3.7 ± 0.4	down to those seen in normal feeding mice	extended duration of action	potency compared with Exendin-4 ([7]; STZ-induced diabetic mice, initial 6 hours of the study, FIG. 14): more potent then Exendin-4™
His-Gly-Glu-Gly-Thr-Phe-Thr-Ser-Asp-Val-Ser-Ser-Tyr-Leu-Glu-Gly-Gln-Ala-Ala-Lys-Ala-Phe-lle-Glu-Trp-Leu-Lys-Asn-NH2 [TH0384]	–	–	–	–	–	potency on blood glucose levels (delta glucose) (Sprague-Dawley rats): more potent than GLP-1 or the 2-hydroxybenzoyl-GLP-1 analog TH0318; potency in displacing receptor bound ligand (125I-GLP-1(7-36)NH2) [6]: considerably more potent than GLP-1
trans-3-hexenoyl-NH-His-Ala-Glu-Gly-Thr-Phe-Thr-Ser-Asp-Val-Ser-Ser-Tyr-[(S)-Octylglycine]-Glu-Gly-Gln-Ala-Ala-Lys-Ala-Phe-Ile-Glu-Trp-Leu-Val-Lys-Asn-NH2 [TH0396]	potently reduce post-prandial glucose	2.3 ± 1.7	3.9 ± 0.3	down to those seen in normal feeding mice	extended duration of action	–
trans-3-hexenoyl-NH-His-Ala-Glu-Gly-Thr-Phe-Thr-Ser-Asp-Val-Ser-Ser-Tyr-[(S)-Octylglycine]-Glu-Gly-Gln-Ala-Ala-Lys-Glu-Phe-Ile-Ala-Trp-Leu-Val-Lys-Gly-Arg-NH2 [TH0424]	potently reduce post-prandial glucose	6.3 ± 1.7	4.3 ± 0.2	down to those seen in normal feeding mice	extended duration of action	–
2-Hydroxybenzoyl-NH-His-Ala-Glu-Gly-Thr-Phe-Thr-Ser-Asp-Val-Ser-Ser-Tyr-Leu-Glu-Gly-Gln-Ala-Ala-Lys-Glu-Phe-Ile-Ala-Trp-Leu-Val-Lys-Gly-Arg-NH2 [TH0318]	–	13.6 ± 2.9	3.5 ± 0.2	–	–	duration of hypoglycemic action (CD-1 mice [3]): 2 h
